What was measured:
[1] = test system: mitochondrial membrane potential; type: cell-based
Protocol: Various examples describing various real-life responses obtained using the mitochondrial marker TMRM will now be given. In actual images of cells stained with TMRM, the level of fluorescence intensity is related to the mitochondrial membrane potential, loss of which can be an indicator of cytotoxicity.
(§1) However, in order to verify further the robustness of the developed methods, these algorithms were tested on FOV-averaged data generated from a real toxicity assay. The cell-based experiment involved the influence of several drugs and the applications of two fluorescent markers during a 5-hour time course. The general background for such an experimental study is outlined in the article by O'Brien et al.
The second example analyzed a mitochondrial marker (TMRM) response. […] It was assumed that all cells started reacting immediately after drug addition. The reaction of a mitochondrial potential to a perturbation (i.e. a drug) is considered to be potentially very diverse.
The expression defined in Equation 16 above is very flexible, and uses as a fitting parameter the single time scale (“τ”), amplitude (“range”) and another parameter (“α”) for controlling response nonlinearity.
The TMRM response was taken for two values of drug concentration, denoted “high” and “low”.
Data fitting was performed using the technique discussed in relation to Equation 16, above. […]

[2] = test system: cytoplasmatic membrane integrity; type: cell-based
Protocol: as §1
The first example analyzed the cytoplasmatic membrane integrity, as indicated by the TOTO-3 marker. TOTO-3 stains cell nuclei only after cell plasma membrane disruption. The response1(t) generated by disruption to the membrane is therefore a curve representing the increase of cell nuclei intensity in TOTO-3 channel. This intensity was measured by a microscopy HTS system. However, the exact moment when a particular membrane became disrupted was unpredictable.
The analysis therefore used stochastic fitting involving a single time parameter (the width of the box-shaped distribution of starting times of the response).
FIG. 11 represents the raw TOTO-3 response. The TOTO-3 response was taken for two values of drug concentration, denoted “high” and “low”.
Data fitting was performed using a response1(t) function having an exponential rising shape. τ was equal to 15 minutes, A=0.5 and B=1.48. The starting time distribution was box shaped with tmin=0 and widtht−fitted.

| effect on mitochondrial function (TMRM response) [1] | TOTO-3 response speed (characteristic time) relative to controls [2] | SMILES |
| --- | --- | --- |
| no effect |  | Cc1oncc1C(=O)Nc1ccc(C(F)(F)F)cc1 [leflunomide] |
|  | responding faster than controls | CC[C@H](C)C(=O)O[C@H]1C[C@@H](C)C=C2C=C[C@H](C)[C@H](CC[C@@H]3C[C@@H](O)CC(=O)O3)[C@H]21 [lovastatin] |
| no effect |  | O=C1CN(/N=C/c2ccc(-c3ccc([N+](=O)[O-])cc3)o2)C(O)=N1 [dantrolene] |
|  | responding faster than controls | COc1ccc(CCN2CCC(Nc3nc4ccccc4n3Cc3ccc(F)cc3)CC2)cc1 [astemizole] |
|  | responding faster than controls | CC/C(=C(\c1ccccc1)c1ccc(OCCN(C)C)cc1)c1ccccc1 [tamoxifen] |

Reference: patent US9047503B2, “System and method for automated biological cell assay data analysis” (GE HEALTHCARE UK LIMITED, priority 2010, dated 2015)
